Assay results reported in the NIST ThermoML archive (doi:10.1021/acs.jced.5b00385).
± gives the expanded uncertainty stated by the source.

Settings: Liquid, Vibrating tube method

`CCOC(=O)CCC(=O)OCC` [diethyl butanedioate] gave a mass density (283.56 K, 100010 kPa) of 1102.48 ± 1.3 kg/m3, a mass density (283.57 K, 100 kPa) of 1049.61 ± 1.1 kg/m3 and a mass density (283.57 K, 1000 kPa) of 1050.21 ± 1.1 kg/m3. For the same compound, the mass density (283.57 K, 3000 kPa) was 1051.56 ± 1.1 kg/m3, the mass density (283.57 K, 5000 kPa) was 1052.88 ± 1.1 kg/m3 and the mass density (283.57 K, 10000 kPa) was 1056.11 ± 1.1 kg/m3. For the same compound, the mass density (283.57 K, 15000 kPa) was 1059.25 ± 1.1 kg/m3, the mass density (283.57 K, 30000 kPa) was 1068.16 ± 1.1 kg/m3 and the mass density (283.57 K, 40000 kPa) was 1073.71 ± 1.1 kg/m3. It also gave a mass density (283.57 K, 50000 kPa) of 1079 ± 1.2 kg/m3, a mass density (283.57 K, 60000 kPa) of 1084.1 ± 1.2 kg/m3 and a mass density (283.57 K, 70000 kPa) of 1089.01 ± 1.2 kg/m3. It also gave a mass density (283.57 K, 80000 kPa) of 1093.63 ± 1.2 kg/m3, a mass density (283.57 K, 90010 kPa) of 1098.12 ± 1.3 kg/m3 and a mass density (283.58 K, 20000 kPa) of 1062.29 ± 1.1 kg/m3. The mass density (283.58 K, 25000 kPa) was 1065.25 ± 1.1 kg/m3, the mass density (293.49 K, 100 kPa) was 1039.78 ± 1.1 kg/m3 and the mass density (293.49 K, 20000 kPa) was 1053.11 ± 1.1 kg/m3. It also gave a mass density (293.49 K, 25000 kPa) of 1056.23 ± 1.1 kg/m3, a mass density (293.49 K, 40000 kPa) of 1065.07 ± 1.1 kg/m3 and a mass density (293.49 K, 60000 kPa) of 1075.9 ± 1.2 kg/m3. It also gave a mass density (293.5 K, 1000 kPa) of 1040.41 ± 1.1 kg/m3, a mass density (293.5 K, 3000 kPa) of 1041.81 ± 1.1 kg/m3 and a mass density (293.5 K, 5000 kPa) of 1043.2 ± 1.1 kg/m3. It also gave a mass density (293.5 K, 10000 kPa) of 1046.6 ± 1.1 kg/m3, a mass density (293.5 K, 15000 kPa) of 1049.91 ± 1.1 kg/m3 and a mass density (293.5 K, 30000 kPa) of 1059.25 ± 1.1 kg/m3. It also gave a mass density (293.5 K, 50000 kPa) of 1070.61 ± 1.1 kg/m3, a mass density (293.5 K, 70000 kPa) of 1080.89 ± 1.2 kg/m3 and a mass density (293.5 K, 80000 kPa) of 1085.77 ± 1.2 kg/m3. For the same compound, the mass density (293.51 K, 90000 kPa) was 1090.39 ± 1.2 kg/m3, the mass density (293.51 K, 100000 kPa) was 1094.9 ± 1.3 kg/m3 and the mass density (303.42 K, 100 kPa) was 1028.98 ± 1.1 kg/m3. It also gave a mass density (303.42 K, 1000 kPa) of 1029.62 ± 1.1 kg/m3, a mass density (303.42 K, 20000 kPa) of 1042.98 ± 1.1 kg/m3 and a mass density (303.42 K, 25000 kPa) of 1046.26 ± 1.1 kg/m3. The mass density (303.42 K, 60000 kPa) was 1066.78 ± 1.1 kg/m3, the mass density (303.42 K, 70000 kPa) was 1072.05 ± 1.2 kg/m3 and the mass density (303.42 K, 80000 kPa) was 1077.09 ± 1.2 kg/m3. It also gave a mass density (303.43 K, 3000 kPa) of 1031.12 ± 1.1 kg/m3, a mass density (303.43 K, 5000 kPa) of 1032.59 ± 1.1 kg/m3 and a mass density (303.43 K, 15000 kPa) of 1039.61 ± 1.1 kg/m3. It also gave a mass density (303.43 K, 30000 kPa) of 1049.4 ± 1.1 kg/m3, a mass density (303.43 K, 40000 kPa) of 1055.5 ± 1.1 kg/m3 and a mass density (303.43 K, 50000 kPa) of 1061.26 ± 1.1 kg/m3. The mass density (303.43 K, 90000 kPa) was 1081.92 ± 1.2 kg/m3, the mass density (303.43 K, 100000 kPa) was 1086.58 ± 1.3 kg/m3 and the mass density (303.44 K, 10000 kPa) was 1036.15 ± 1.1 kg/m3. It also gave a mass density (313.31 K, 15000 kPa) of 1030.05 ± 1.1 kg/m3, a mass density (313.31 K, 50000 kPa) of 1052.81 ± 1.1 kg/m3 and a mass density (313.32 K, 5000 kPa) of 1022.61 ± 1.1 kg/m3. The mass density (313.32 K, 10000 kPa) was 1026.44 ± 1.1 kg/m3, the mass density (313.32 K, 30000 kPa) was 1040.39 ± 1.1 kg/m3 and the mass density (313.32 K, 40000 kPa) was 1046.78 ± 1.1 kg/m3. It also gave a mass density (313.33 K, 100 kPa) of 1018.75 ± 1 kg/m3, a mass density (313.33 K, 1000 kPa) of 1019.44 ± 1 kg/m3 and a mass density (313.33 K, 3000 kPa) of 1021.07 ± 1.1 kg/m3. It also gave a mass density (313.33 K, 20000 kPa) of 1033.63 ± 1.1 kg/m3, a mass density (313.33 K, 25000 kPa) of 1037.06 ± 1.1 kg/m3 and a mass density (313.33 K, 60000 kPa) of 1058.52 ± 1.1 kg/m3. For the same compound, the mass density (313.33 K, 70000 kPa) was 1064.01 ± 1.2 kg/m3, the mass density (313.33 K, 80000 kPa) was 1069.21 ± 1.2 kg/m3 and the mass density (313.33 K, 90000 kPa) was 1074.2 ± 1.2 kg/m3. For the same compound, the mass density (313.33 K, 100000 kPa) was 1078.99 ± 1.2 kg/m3, the mass density (323.18 K, 100 kPa) was 1008.44 ± 1 kg/m3 and the mass density (323.18 K, 1000 kPa) was 1009.19 ± 1 kg/m3. For the same compound, the mass density (323.18 K, 3000 kPa) was 1010.86 ± 1 kg/m3, the mass density (323.18 K, 10000 kPa) was 1016.52 ± 1 kg/m3 and the mass density (323.18 K, 15000 kPa) was 1020.37 ± 1.1 kg/m3. For the same compound, the mass density (323.18 K, 20000 kPa) was 1024.08 ± 1.1 kg/m3, the mass density (323.18 K, 25000 kPa) was 1027.7 ± 1.1 kg/m3 and the mass density (323.19 K, 5000 kPa) was 1012.5 ± 1 kg/m3. The mass density (323.19 K, 30000 kPa) was 1031.17 ± 1.1 kg/m3, the mass density (323.19 K, 40000 kPa) was 1037.8 ± 1.1 kg/m3 and the mass density (323.19 K, 50000 kPa) was 1044.06 ± 1.1 kg/m3. The mass density (323.19 K, 60000 kPa) was 1050.01 ± 1.1 kg/m3, the mass density (323.19 K, 70000 kPa) was 1055.67 ± 1.1 kg/m3 and the mass density (323.19 K, 80000 kPa) was 1061.06 ± 1.2 kg/m3. It also gave a mass density (323.19 K, 90000 kPa) of 1066.22 ± 1.2 kg/m3, a mass density (323.19 K, 100000 kPa) of 1071.19 ± 1.2 kg/m3 and a mass density (333.1 K, 100 kPa) of 998.31 ± 1 kg/m3. It also gave a mass density (333.1 K, 1000 kPa) of 999.11 ± 1 kg/m3, a mass density (333.1 K, 3000 kPa) of 1000.91 ± 1 kg/m3 and a mass density (333.1 K, 5000 kPa) of 1002.64 ± 1 kg/m3. The mass density (333.11 K, 10000 kPa) was 1006.85 ± 1 kg/m3, the mass density (333.11 K, 15000 kPa) was 1010.94 ± 1 kg/m3 and the mass density (333.11 K, 20000 kPa) was 1014.85 ± 1 kg/m3. The mass density (333.11 K, 25000 kPa) was 1018.62 ± 1.1 kg/m3, the mass density (333.11 K, 30000 kPa) was 1022.27 ± 1.1 kg/m3 and the mass density (333.11 K, 40000 kPa) was 1029.2 ± 1.1 kg/m3. For the same compound, the mass density (333.11 K, 50000 kPa) was 1035.72 ± 1.1 kg/m3, the mass density (333.11 K, 60000 kPa) was 1041.91 ± 1.1 kg/m3 and the mass density (333.11 K, 70000 kPa) was 1047.69 ± 1.1 kg/m3. For the same compound, the mass density (333.11 K, 80000 kPa) was 1053.26 ± 1.1 kg/m3, the mass density (333.11 K, 90000 kPa) was 1058.57 ± 1.2 kg/m3 and the mass density (333.11 K, 100000 kPa) was 1063.7 ± 1.2 kg/m3. The mass density (342.97 K, 100 kPa) was 987.87 ± 1 kg/m3, the mass density (342.97 K, 15000 kPa) was 1001.22 ± 1 kg/m3 and the mass density (342.97 K, 20000 kPa) was 1005.3 ± 1 kg/m3. The mass density (342.97 K, 30000 kPa) was 1013.07 ± 1 kg/m3, the mass density (342.97 K, 40000 kPa) was 1020.32 ± 1.1 kg/m3 and the mass density (342.97 K, 50000 kPa) was 1027.1 ± 1.1 kg/m3. For the same compound, the mass density (342.97 K, 70000 kPa) was 1039.64 ± 1.1 kg/m3, the mass density (342.97 K, 90000 kPa) was 1050.91 ± 1.2 kg/m3 and the mass density (342.97 K, 100000 kPa) was 1056.19 ± 1.2 kg/m3. For the same compound, the mass density (342.98 K, 1000 kPa) was 988.73 ± 1 kg/m3, the mass density (342.98 K, 3000 kPa) was 990.63 ± 1 kg/m3 and the mass density (342.98 K, 5000 kPa) was 992.45 ± 1 kg/m3. It also gave a mass density (342.98 K, 10000 kPa) of 996.91 ± 1 kg/m3, a mass density (342.98 K, 25000 kPa) of 1009.24 ± 1 kg/m3 and a mass density (342.98 K, 60000 kPa) of 1033.53 ± 1.1 kg/m3. It also gave a mass density (342.98 K, 80000 kPa) of 1045.43 ± 1.1 kg/m3, a mass density (352.82 K, 100 kPa) of 977.64 ± 1 kg/m3 and a mass density (352.82 K, 1000 kPa) of 978.58 ± 1 kg/m3. It also gave a mass density (352.82 K, 3000 kPa) of 980.59 ± 1 kg/m3, a mass density (352.82 K, 5000 kPa) of 982.53 ± 1 kg/m3 and a mass density (352.82 K, 10000 kPa) of 987.26 ± 1 kg/m3. For the same compound, the mass density (352.82 K, 15000 kPa) was 991.79 ± 1 kg/m3, the mass density (352.83 K, 20000 kPa) was 996.08 ± 1 kg/m3 and the mass density (352.83 K, 25000 kPa) was 1000.24 ± 1 kg/m3. The mass density (352.83 K, 30000 kPa) was 1004.25 ± 1 kg/m3, the mass density (352.83 K, 40000 kPa) was 1011.8 ± 1 kg/m3 and the mass density (352.83 K, 50000 kPa) was 1018.87 ± 1.1 kg/m3. The mass density (352.83 K, 60000 kPa) was 1025.54 ± 1.1 kg/m3, the mass density (352.83 K, 70000 kPa) was 1031.82 ± 1.1 kg/m3 and the mass density (352.83 K, 80000 kPa) was 1037.81 ± 1.1 kg/m3. It also gave a mass density (352.83 K, 90000 kPa) of 1043.47 ± 1.1 kg/m3, a mass density (352.83 K, 100010 kPa) of 1048.95 ± 1.2 kg/m3 and a mass density (362.66 K, 100 kPa) of 967.3 ± 0.99 kg/m3. For the same compound, the mass density (362.66 K, 1000 kPa) was 968.28 ± 0.99 kg/m3, the mass density (362.66 K, 3000 kPa) was 970.41 ± 0.99 kg/m3 and the mass density (362.66 K, 60000 kPa) was 1017.41 ± 1.1 kg/m3. For the same compound, the mass density (362.67 K, 5000 kPa) was 972.48 ± 1 kg/m3, the mass density (362.67 K, 10000 kPa) was 977.45 ± 1 kg/m3 and the mass density (362.67 K, 15000 kPa) was 982.21 ± 1 kg/m3. For the same compound, the mass density (362.67 K, 20000 kPa) was 986.74 ± 1 kg/m3, the mass density (362.67 K, 25000 kPa) was 991.07 ± 1 kg/m3 and the mass density (362.67 K, 30000 kPa) was 995.26 ± 1 kg/m3. It also gave a mass density (362.67 K, 40000 kPa) of 1003.16 ± 1 kg/m3, a mass density (362.67 K, 50000 kPa) of 1010.5 ± 1.1 kg/m3 and a mass density (362.67 K, 70000 kPa) of 1023.98 ± 1.1 kg/m3. The mass density (362.67 K, 80000 kPa) was 1030.14 ± 1.1 kg/m3, the mass density (362.67 K, 90000 kPa) was 1036.01 ± 1.1 kg/m3 and the mass density (362.67 K, 100000 kPa) was 1041.65 ± 1.2 kg/m3.
